Like-named read-outs stand apart in the source and are kept apart here.
Tests used:
[1] = system: S. aureus MRSA—clinical isolate C1926; assay: Microdilution broth MIC; type: cell-based; conditions: Staphylococcus aureus, 24 h
[2] = system: anti-miR-21 oligo(2′-O-methylribonucleotide); assay: DLS of dendriplexes with anti-miR-21 oligonucleotide; type: physicochemical; conditions: for mean diameter of dendriplex: 0.9% NaCl
Description: Dendriplexes were characterized by DLS using Zetasizer Nano-S (Malvern Panalytical, UK) equipped with a 632.8 nm laser, applying detection angle 173°. Mean diameters from the intensity-weighted size distribution are given. Average results from three consecutive sets of measurements generated by Malvern Zetasizer Software version 7.13 are presented.
Amphiphilic dendrons (1.5–73 μM) were mixed with the anti-miR-21:5′-m([…]) (500 nM) in 0.9% NaCl solution in milli-Q water. The dendrons’ concentrations were chosen to attain the charge ratio (CR, the ratio of cations over anions in the sample) of 1.2, 2.5, 5, 10, or 20. The samples were incubated for 15 min at rt prior to measurements.

[3] = system: K. pneumoniae ESBL+—clinical isolate C1914; assay: Microdilution broth MIC; type: cell-based; conditions: Klebsiella pneumoniae, 24 h
Description: (§1) In vitro antibacterial activity of the prepared amp-DDNs (DnP6-1C12, DnP3-1C12, DnP3-2C12, and DnP3-2C18) was tested on a panel of four G+ (Staphylococcus aureus CCM 4516, methicillin-resistant S. aureus clinical isolate C1923, Staphylococcus epidermidis clinical isolate C1936, and vancomycin-resistant Enterococcus faecium clinical isolate S2484) and four G-bacterial strains (Escherichia coli K12, CCM 7929, E. coli clinical isolate A1235, extended-spectrum β-lactamase-producing (ESBL+) Klebsiella pneumoniae clinical isolate C1914, and multiresistant Pseudomonas aeruginosa clinical isolate A1245). CCM collection strains were obtained from the Czech Collection of Microorganisms. All clinical isolates were obtained during routine procedures in the clinical laboratory at the University Hospital Hradec Králové. All strains were stored at −70 °C in the Cryobank according to the manufacturer’s instructions. Subsequently, when needed, each bacterial strain was inoculated and cultivated on Mueller–Hinton agar (HiMedia, Cadersky-Envitek, Prague, Czech Republic).
(§2) The antibacterial susceptibility was determined by a microdilution broth method according to standard M07-A10,[55] and the optimized protocol has been published previously.[56],[57] Briefly, Mueller–Hinton broth (MHB) adjusted to pH 7.4 (±0.2) was used as the test medium. […] The wells of the microdilution tray contained 200 μL of the MHB with 2-fold serial dilutions of the compounds and were inoculated with 10 μL of the bacterial suspension. The bacterial suspensions were controlled densitometrically to reach 1.5 × 10^8 viable CFU per 1 mL. The minimum inhibitory concentration (MIC) values, defined as 95% inhibition of bacterial growth, were determined after 24 h of incubation at 35 °C ± 1 °C.

[4] = system: E. faecium VRE—clinical isolate S2484; assay: Microdilution broth MIC; type: cell-based; conditions: Enterococcus faecium, 24 h
Description: as §1, §2

[5] = system: S. aureus CCM 4516; assay: Microdilution broth MIC; type: cell-based; conditions: Staphylococcus aureus
Description: as §1, §2

[6] = system: S. epidermidis—clinical isolate C1936; assay: Microdilution broth MIC; type: cell-based; conditions: Staphylococcus epidermidis, 24 h
Description: as §1, §2

[7] = system: E. coli—clinical isolate A1235; assay: Microdilution broth MIC; type: cell-based; conditions: Escherichia coli, 24 h
Description: as §1, §2

[8] = system: E. coli K12, CCM 7929; assay: Microdilution broth MIC; type: cell-based; conditions: Escherichia coli
Description: as §1, §2

[9] = system: P. aeruginosa MR—clinical isolate A1245; assay: Microdilution broth MIC; type: cell-based; conditions: Pseudomonas aeruginosa, 24 h
Description: as §1, §2

[10] = Dynamic light scattering (DLS/MADLS) of micelles in physiological solution; type: physicochemical
Description: The size of micelles and micellar aggregates was estimated by the dynamic light scattering (DLS) method using NanoBrook OMNI ZetaPALS (Brookhaven Instruments, USA) with a detection angle 90° and 640 nm laser. The presented diameters are mean values from the intensity-weighted size distribution. The composition of the samples was as follows: dendron (1.0 mM) and NaCl (0.9%) in deionized water. The solutions were sonicated for 30 min, filtered through 0.45 μm Nylon syringe filters (Avantor, USA), placed in standard polystyrene cuvettes (BI-SCP, Brookhaven Instruments), and stored at 4 °C. All measurements were conducted at 25 °C. Measurement time was set to 5 min, and each measurement was repeated 5 times. The analysis of data was performed using Brookhaven Instruments software Particle Solutions v3.6.07136.
MADLS and size dependence on concentration and pH were measured on Zetasizer Ultra Red (Malvern Panalytical, UK) equipped with a 632.8 nm laser, applying detection angles 12.78°, 90°, and 174.7° in the case of MADLS measurements and 12.78° for size dependence measurements. MADLS and concentration dependence were measured in DTS0012 polystyrene cuvettes (Malvern Panalytical, UK); pH dependence was studied by acidobasic titration in DTS1070 folded capillary Zeta cell, using MPT-3 Multipurpose Titrator and DEG0003 Auto Degasser (all Malvern Panalytical, UK). The concentration dependence measurement started at 1.0 mM and the samples were diluted 2-fold until the minimum concentration 0.06 mM. For each concentration, the measurement was repeated 3 times giving 15 measurements in total. The pH dependence measurement started at pH 12; the titration was performed with a step of 2 and at each step, the measurement was repeated 3 times, giving 18 measurements in total. Malvern Panalytical software ZS Xplorer version 3.3.1.5 was used for the analysis of data.

[11] = CCM4516, 24 h, 95% inhibition of growth, read-out: MIC
[12] = 95% inhibition of growth, read-out: MIC
[13] = CCM7929, 24 h, 95% inhibition of growth, read-out: MIC

Structure (SMILES)	MIC [1]	PI of dendriplex ([2]; CR 1.2)	mean diameter of dendriplex ([2]; CR 1.2, anti-miR-21 500 nM)	PI of dendriplex ([2]; CR 2.5)	mean diameter of dendriplex ([2]; CR 2.5, anti-miR-21 500 nM)	PI of dendriplex ([2]; CR 5)	mean diameter of dendriplex ([2]; CR 5, anti-miR-21 500 nM)	PI of dendriplex ([2]; CR 10)	mean diameter of dendriplex ([2]; CR 10, anti-miR-21 500 nM)	MIC [3]	MIC [4]	MIC [5, 11]	MIC [6, 12]	MIC [7, 12]	MIC [8, 13]	MIC [9]	MIC ([5]; CCM4516, 24 h)	MIC [6]	MIC [7]	MIC ([8]; CCM7929, 24 h)	other results
CCCCCCCCCCCCNC(=O)c1ccc(OCCC[Si](CCCSCC(=O)NCCC[P+](c2ccccc2)(c2ccccc2)c2ccccc2)(CCCSCC(=O)NCCC[P+](c2ccccc2)(c2ccccc2)c2ccccc2)CCCSCC(=O)NCCC[P+](c2ccccc2)(c2ccccc2)c2ccccc2)cc1 [DnP3-1C12]	3.13 µM	0.07	0.14 μm	0.2	0.9 μm	0.3	> 1 μm	0.1	> 1 μm	> 12.5 µM	1.15 µM	3.13 µM	1.56 µM	12.5 µM	6.25 µM	> 12.5 µM					
CCCCCCCCCCCCCCCCCCNC(=O)c1ccc(OCCC[Si](CCCSCC(=O)NCCC[P+](c2ccccc2)(c2ccccc2)c2ccccc2)(CCCSCC(=O)NCCC[P+](c2ccccc2)(c2ccccc2)c2ccccc2)CCCSCC(=O)NCCC[P+](c2ccccc2)(c2ccccc2)c2ccccc2)cc1 [DnP3-1C18]	6.25 µM	0.14	0.23 μm	0.2	0.5 μm	0.4	> 1 μm	0.3	> 1 μm	> 6.25 µM	6.25 µM	6.25 µM	3.13 µM	> 6.25 µM	> 6.25 µM	> 6.25 µM					
CCCCCCCCCCCCNC(=O)c1cc(OCCC[Si](CCCSCC(=O)NCCC[P+](c2ccccc2)(c2ccccc2)c2ccccc2)(CCCSCC(=O)NCCC[P+](c2ccccc2)(c2ccccc2)c2ccccc2)CCCSCC(=O)NCCC[P+](c2ccccc2)(c2ccccc2)c2ccccc2)cc(C(=O)NCCCCCCCCCCCC)c1 [DnP3-2C12]	> 12.5 µM	0.11	0.13 μm	0.2	0.8 μm	0.3	1.0 μm	0.14	0.18 μm	> 12.5 µM	> 12.5 µM					> 12.5 µM	> 12.5 µM	> 12.5 µM	> 12.5 µM	> 12.5 µM	PDI ([10]; 1.0 mM dendron, 0.9% NaCl): ≈ 0.2; mean size (DLS, intensity-weighted) ([10]; 1.0 mM dendron, 0.9% NaCl, 25 °C, start of testing period): 21 nm; mean size (DLS, intensity-weighted) ([10]; 1.0 mM dendron, 0.9% NaCl, after 75 day testing period, stored at 4 °C): 25 nm; mean size of the second population (MADLS) ([10]; aggregates): 37 nm; mean diameter of the smaller particles (MADLS) ([10]; isolated micelles): 10.0 nm; PI of dendriplex ([2]; CR 20): 0.17; mean diameter of dendriplex ([2]; CR 20, anti-miR-21 500 nM): 0.14 μm
CCCCCCCCCCCCNC(=O)c1cc(OCCC[Si](CCCSCC(=O)NCCC[P+](c2ccccc2)(c2ccccc2)c2ccccc2)(CCCSCC(=O)NCCC[P+](c2ccccc2)(c2ccccc2)c2ccccc2)CCCSCC(=O)NCCC[P+](c2ccccc2)(c2ccccc2)c2ccccc2)cc(OCCC[Si](CCCSCC(=O)NCCC[P+](c2ccccc2)(c2ccccc2)c2ccccc2)(CCCSCC(=O)NCCC[P+](c2ccccc2)(c2ccccc2)c2ccccc2)CCCSCC(=O)NCCC[P+](c2ccccc2)(c2ccccc2)c2ccccc2)c1 [DnP6-1C12]	6.25 µM	0.08	0.22 μm	0.2	0.8 μm	0.10	0.8 μm	0.05	0.8 μm	12.5 µM	3.13 µM					≥ 12.5 µM	6.25 µM	1.56 µM	6.25 µM	6.25 µM	
CCCCCCCCCCCCCCCCCCNC(=O)c1cc(OCCC[Si](CCCSCC(=O)NCCC[P+](c2ccccc2)(c2ccccc2)c2ccccc2)(CCCSCC(=O)NCCC[P+](c2ccccc2)(c2ccccc2)c2ccccc2)CCCSCC(=O)NCCC[P+](c2ccccc2)(c2ccccc2)c2ccccc2)cc(OCCC[Si](CCCSCC(=O)NCCC[P+](c2ccccc2)(c2ccccc2)c2ccccc2)(CCCSCC(=O)NCCC[P+](c2ccccc2)(c2ccccc2)c2ccccc2)CCCSCC(=O)NCCC[P+](c2ccccc2)(c2ccccc2)c2ccccc2)c1 [DnP6-1C18]	6.25 µM	0.05	0.18 μm	0.3	> 1 μm	0.3	> 1 μm	0.3	> 1 μm	> 6.25 µM	6.25 µM					> 6.25 µM	6.25 µM	6.25 µM	> 6.25 µM	> 6.25 µM	
